The results in this text go back to patent US11044909B2, “Composition for destruction of microalgae or sphaerocarpus” (CUREARTH, INC., priority 2015, dated 2021).

Read-outs that look alike come from different tables or passages of the source.

Assay in all cases: Microalgae-destroying effect by IC50 measurement (cell count)
What all share (assay type): cell-based

One experiment concerns Chattonella Marina. The note with it: 24 h, cultured 1 day, read-out: IC50 Chattonella Marina. How it is done:
(§1) The IC50 value was obtained according to Equation 1: […]
(§2) First, the above-listed microalgae were cultured in a culture flask at a temperature of about 20° C. under light conditions, and a medium used was Guillard's f/2 medium which is commonly used in the art (Guillard R R L and Keller M D. Culturing dinoflagellates. In: Spector (Ed.), Dinoflagellates. New York: Academic Press; 1984, 391442).
(§3) After the cultured microalgae were transferred onto a 24-well plate, Chattonella Marina, Heterosigma circularisquama, Cochlodinium Polykrikoides, and Heterosigma akashiwo, which were in an exponential growth phase, were treated with Compounds 1 to 3, 5 to 10, 12, 13, 17 to 43, and 45 to 47 synthesized in Examples 1 to 3, 5 to 10, 12, 13, 17 to 43, and 45 to 47 at concentrations of 0.1 uM, 0.2 uM, 0.5 uM, 1 uM, 2 uM, and 5 uM, and then cultured for 1 day.
(§4) Control groups were not treated with any of the compounds synthesized in the above-identified examples. After incubation, the number of cells of each alga was counted using a Burker-Tukr hemocytometer, and IC50 values were calculated according to Equation 1 using SigmaPlot Version 11.2 software (Standard curve: the four-parameter logistic curve).

A further experiment has as its system Heterosigma Akashiwo. Conditions: 24 h, cultured 1 day, read-out: IC50 Heterosigma Akashiwo. As for the experimental part: as §1, §2, §3, §4
In experiment [1] the test system is Heterocapsa Circularisquama. The note with it: 24 h, cultured 1 day. As for the experimental part: as §1, §2, §3, §4
The subject of experiment [2] is Cochlodinium Polykrikoides. Conditions: Margalefidinium polykrikoides, 24 h, 0.1-5 uM, cultured 1 day, read-out: IC50 Cochlodinium Polykrikoides. As for the experimental part: (§5) The IC50 value was obtained according to Equation 1:
(§6) The algicidal activity of each compound was calculated using Equation 2: Algicidal activity (%)=(1−Tt/Ct)×100 <Equation 2>
(§7) In Equation 2, T (treatment group) and C (control group) represent algae densities in cell counts when each compound was inoculated and was not inoculated, respectively, and t represents the number of days which had passed after the inoculation.
as §2, §3, §4

The next experiment relates to Microcystis aeruginosa. Conditions: read-out: IC50 Microcystis aeruginosa. How it is done:
as §5, §6, §7, §2
Microcystis aeruginosa was treated with Compounds 1 to 3, 5 to 10, 12, 13, 17 to 43, and 45 to 51 synthesized in Examples 1 to 3, 5 to 10, 12, 13, 17 to 43, and 45 to 51 at concentrations of 0.1 uM, 0.2 uM, 0.5 uM, 1 uM, 2 uM, 5 uM, 10 uM, 15 uM, and 20 uM and then cultured for 5 days.
as §4

[3] abbreviates: Table 1, 3,4-dichlorobenzylamines, 0.1-5 uM.
Where [4] appears, read: Table 1, 3,4-dichlorobenzylamines, 0.1-5 uM, read-out: IC50 Heterocapsa Circularisquama.
The mark [5] stands for this setting: Table 1, 3,4-dichlorobenzylamines.
Where [6] appears, read: Microcystis aeruginosa, 120 h, Table 1, 3,4-dichlorobenzylamines, 0.1-20 uM, cultured 5 days.
Where [7] appears, read: Table 2, 0.1-5 uM, read-out: IC50 Heterocapsa Circulariaquama.

One may read the IC50 as the concentration that inhibits the measured activity by half. As for `CC(C)CCNCc1ccc(Cl)c(Cl)c1` [Compound 7, (3,4-Dichloro-benzyl)-(3-methyl-butyl)-amine], the concentration for half-maximal inhibition (IC50) with Chattonella Marina (setting [3]) turned out to be 2000 nM; in the experiment on Heterosigma Akashiwo (setting [3]) it was 280 nM; in experiment [1] (setting [4]), 1500 nM; in experiment [2] (setting [5]), 1530 nM; with Microcystis aeruginosa (setting [6]) it was 11600 nM.

As to `Fc1ccc(NCc2ccc(Cl)c(Cl)c2)cc1` [Compound 23, (3,4-Dichloro-benzyl)-(4-fluoro-phenyl)-amine], the IC50 is > 5000 nM in the experiment with Chattonella Marina (setting [3]); 1540 nM with Heterosigma Akashiwo (setting [3]); > 5000 nM in experiment [1] (setting [4]); > 5000 nM in experiment [2] (setting [5]); 11100 nM in the experiment on Microcystis aeruginosa (setting [6]).

As for `CCCCNCc1ccc(Cl)c(Cl)c1` [Compound 20, Butyl-(3,4-dichloro-benzyl)-amine], the IC50 in the experiment with Chattonella Marina (setting [3]) is 3160 nM; with Heterosigma Akashiwo (setting [3]) it was 440 nM; in experiment [1] (setting [4]), 2860 nM; in experiment [2] (setting [5]), 3520 nM; with Microcystis aeruginosa (setting [6]), > 20000 nM.

On to `Oc1ccccc1CNCCc1ccccn1` [Compound 38, 2-[(2-Pyridin-2-yl-ethylamino)-methyl]-phenol], for which the IC50 with Chattonella Marina (Table 2, 0.1-5 uM) was 910 nM; in the experiment on Heterosigma Akashiwo (Table 2, 0.1-5 uM), 130 nM; in experiment [1] (setting [7]) it was > 5000 nM; in experiment [2] (Table 2), > 5000 nM; in the experiment on Microcystis aeruginosa (Microcystis aeruginosa, 120 h) it was > 5000 nM.

In the case of `Clc1ccc(CNCCc2cccnc2)cc1Cl` [Compound 31, (3,4-Dichloro-benzyl)-(2-pyridin-3-yl-ethyl)-amine], the concentration for half-maximal inhibition (IC50) in the experiment on Chattonella Marina (setting [3]) was 3500 nM; in the experiment with Heterosigma Akashiwo (setting [3]), 590 nM; in experiment [1] (setting [4]), 1600 nM; in experiment [2] (setting [5]) it was 424 nM; in the experiment on Microcystis aeruginosa (setting [6]) it was > 20000 nM.

With `Clc1ccc(CNC2CCC2)cc1Cl` [Compound 46, Cyclobutyl-(3,4-dichloro-benzyl)-amine], the IC50 amounted to 1130 nM with Chattonella Marina (setting [3]); 482 nM in the experiment on Heterosigma Akashiwo (setting [3]); 3080 nM in experiment [1] (setting [4]); 1670 nM in experiment [2] (setting [5]); 15800 nM with Microcystis aeruginosa (setting [6]).

For `Clc1ccc(CNc2ccc(Br)cc2)cc1Cl` [Compound 25, (4-Bromo-phenyl)-(3,4-dichloro-benzyl)-amine], the IC50 is > 5000 nM in the experiment on Chattonella Marina (setting [3]); 1190 nM in the experiment on Heterosigma Akashiwo (setting [3]); 2830 nM in experiment [1] (setting [4]); 4000 nM in experiment [2] (setting [5]); 11100 nM in the experiment on Microcystis aeruginosa (setting [6]).

Consider `CCN(CC)CCCNCc1ccc(Cl)c(Cl)c1` [Compound 48, N′-(3,4-Dichloro-benzyl)-N, N-diethyl-propane-1,3-diamine.2HCl], for which the IC50 in the experiment with Microcystis aeruginosa (Table 1, 3,4-dichlorobenzylamines, 0.1-20 uM, cultured 5 days) is 780 nM.

Take `Brc1cccc(CNCCc2ccccn2)c1` [Compound 40, (3-Bromo-benzyl)-(2-pyridin-2-yl-ethyl)-amine]: the 50% inhibitory concentration (IC50) with Chattonella Marina (Table 2, 0.1-5 uM) is 740 nM; in the experiment on Heterosigma Akashiwo (Table 2, 0.1-5 uM), 570 nM; in experiment [1] (setting [7]), > 5000 nM; in experiment [2] (Table 2), 3500 nM; in the experiment with Microcystis aeruginosa (Microcystis aeruginosa, 120 h), > 5000 nM.

For the compound `CN(C)CCNC(=O)c1ccc(Cl)c(Cl)c1` [Compound 10, 3,4-Dichloro-N-(2-dimethylamino-ethyl)-benzamide], the IC50 in the experiment on Chattonella Marina (Table 2, 0.1-5 uM) was > 5000 nM; in the experiment with Heterosigma Akashiwo (Table 2, 0.1-5 uM), 1630 nM; in experiment [1] (setting [7]), > 5000 nM; in experiment [2] (Table 2), > 5000 nM; in the experiment with Microcystis aeruginosa (Microcystis aeruginosa, 120 h) it was > 5000 nM.

On to `CN(C)CCCNCc1ccc(Cl)c(Cl)c1` [Compound 8, N′-(3,4-Dichloro-benzyl)-N,N-dimethyl-propane-1,3-diamine], for which the IC50 with Chattonella Marina (setting [3]) was determined as 810 nM; with Heterosigma Akashiwo (setting [3]) it was 1260 nM; in experiment [1] (setting [4]) it was 3300 nM; in experiment [2] (setting [5]), 290 nM; in the experiment on Microcystis aeruginosa (setting [6]) it was 90 nM.

On to `Clc1ccc(CNC2CCCCCC2)cc1Cl` [Compound 36, Cycloheptyl-(3,4-dichloro-benzyl)-amine], for which the IC50 came out at 250 nM in the experiment with Chattonella Marina (setting [3]); 263 nM in the experiment with Heterosigma Akashiwo (setting [3]); 690 nM in experiment [1] (setting [4]); 150 nM in experiment [2] (setting [5]); 3090 nM in the experiment on Microcystis aeruginosa (setting [6]).

For `Clc1ccc(CNCCc2ccccc2)cc1Cl` [Compound 34, (3,4-Dichloro-benzyl)-phenethyl-amine], the IC50 worked out at 460 nM in the experiment with Chattonella Marina (setting [3]); 120 nM in the experiment on Heterosigma Akashiwo (setting [3]); 1500 nM in experiment [1] (setting [4]); 875 nM in experiment [2] (setting [5]); 5970 nM in the experiment with Microcystis aeruginosa (setting [6]).

As to `O=C(/C=C/c1ccc(Cl)c(Cl)c1)c1ccccc1` [Compound 22, 3-(3,4-Dichloro-phenyl)-1-phenyl-propenone], the concentration for half-maximal inhibition (IC50) with Chattonella Marina (Table 2, 0.1-5 uM) is > 5000 nM; in the experiment on Heterosigma Akashiwo (Table 2, 0.1-5 uM), 3670 nM; in experiment [1] (setting [7]) it was > 5000 nM; in experiment [2] (Table 2) it was 1660 nM; in the experiment on Microcystis aeruginosa (Microcystis aeruginosa, 120 h), > 5000 nM.

Turning to `c1ccc(CNC2CCCCCC2)cc1` [Compound 42, Benzyl-cycloheptyl-amine], the IC50 was 520 nM in the experiment with Chattonella Marina (Table 2, 0.1-5 uM); 150 nM in the experiment on Heterosigma Akashiwo (Table 2, 0.1-5 uM); > 5000 nM in experiment [1] (setting [7]); > 5000 nM in experiment [2] (Table 2); > 5000 nM in the experiment with Microcystis aeruginosa (Microcystis aeruginosa, 120 h).

In the case of `Clc1ccc(CNCc2cccnc2)cc1Cl` [Compound 27, (3,4-Dichloro-benzyl)-pyridin-3-ylmethyl-amine], the IC50 in the experiment with Chattonella Marina (setting [3]) is > 5000 nM; in the experiment on Heterosigma Akashiwo (setting [3]), 790 nM; in experiment [1] (setting [4]), 3550 nM; in experiment [2] (setting [5]), 2000 nM; with Microcystis aeruginosa (setting [6]) it was > 20000 nM.

As for `Clc1ccc(CNc2ccccc2)cc1Cl` [Compound 19, (3,4-Dichloro-benzyl)-phenyl-amine], the half-inhibitory concentration (IC50) in the experiment with Chattonella Marina (setting [3]) was 3500 nM; with Heterosigma Akashiwo (setting [3]), 1270 nM; in experiment [1] (setting [4]), > 5000 nM; in experiment [2] (setting [5]), 4140 nM; with Microcystis aeruginosa (setting [6]), 13800 nM.

Regarding `CCN(CC)CCNC(=O)c1ccc(Cl)c(Cl)c1` [Compound 9, 3,4-Dichloro-N-(2-diethylamino-ethyl)-benzamide], the IC50 with Chattonella Marina (Table 2, 0.1-5 uM) was > 5000 nM; in the experiment on Heterosigma Akashiwo (Table 2, 0.1-5 uM) it was 1850 nM; in experiment [1] (setting [7]) it was 1970 nM; in experiment [2] (Table 2) it was 4550 nM; with Microcystis aeruginosa (Microcystis aeruginosa, 120 h) it was 970 nM.

For `Clc1ccc(CNC2CCc3ccccc32)cc1Cl` (stereo not drawn) [Compound 45, (3,4-Dichloro-benzyl)-indan-1-yl-amine], the IC50 in the experiment with Chattonella Marina (setting [3]) was 1440 nM; in the experiment with Heterosigma Akashiwo (setting [3]), 1140 nM; in experiment [1] (setting [4]), 2000 nM; in experiment [2] (setting [5]), 310 nM; in the experiment with Microcystis aeruginosa (setting [6]) it was > 20000 nM.

`CCCCN(CCCC)CCNCc1ccc(Cl)c(Cl)c1` [Compound 49, N,N-Dibutyl-N′-(3,4-dichlorobenzyl)ethane-1,2-diamine]: in the experiment on Microcystis aeruginosa (setting [6]), the IC50 worked out at 880 nM.

As to `CCNCc1ccc(Cl)c(Cl)c1` [Compound 17, (3,4-Dichloro-benzyl)-ethyl-amine], the IC50 was > 5000 nM in the experiment with Chattonella Marina (setting [3]); 1180 nM in the experiment on Heterosigma Akashiwo (setting [3]); > 5000 nM in experiment [1] (setting [4]); > 5000 nM in experiment [2] (setting [5]); > 20000 nM in the experiment with Microcystis aeruginosa (setting [6]).

As for `CCN(CC)CCCNC(=O)c1ccc(Cl)c(Cl)c1` [Compound 13, 3,4-Dichloro-N-(3-diethylamino-propyl)-benzamide], the half-inhibitory concentration (IC50) in the experiment on Chattonella Marina (Table 2, 0.1-5 uM) is 4500 nM; in the experiment with Heterosigma Akashiwo (Table 2, 0.1-5 uM) it was 2270 nM; in experiment [1] (setting [7]) it was 5000 nM; in experiment [2] (Table 2), 2220 nM; in the experiment on Microcystis aeruginosa (Microcystis aeruginosa, 120 h), > 5000 nM.

For the compound `Clc1ccc(CNCc2ccncc2)cc1Cl` [Compound 28, (3,4-Dichloro-benzyl)-pyridin-4-ylmethyl-amine], the IC50 with Chattonella Marina (setting [3]) was > 5000 nM; in the experiment on Heterosigma Akashiwo (setting [3]), 2280 nM; in experiment [1] (setting [4]), > 5000 nM; in experiment [2] (setting [5]), > 5000 nM; with Microcystis aeruginosa (setting [6]), 15200 nM.

Consider `COCCNCc1ccc(Cl)c(Cl)c1` [Compound 5, (3,4-dichloro-benzyl)-(2-methoxy-ethyl)-amine], for which the IC50 in the experiment with Chattonella Marina (setting [3]) was > 5000 nM; in the experiment with Heterosigma Akashiwo (setting [3]) it was 1300 nM; in experiment [1] (setting [4]), > 5000 nM; in experiment [2] (setting [5]), > 5000 nM; with Microcystis aeruginosa (setting [6]), 14200 nM.

As for `OCCN(CCO)CCCNCc1ccc(Cl)c(Cl)c1` [Compound 51, 2-[[3-(3,4-Dichlorobenzylamino)propyl]-(2-hydroxyethyl)amino]ethanol], the concentration for half-maximal inhibition (IC50) in the experiment on Microcystis aeruginosa (setting [6]) was determined as 2270 nM.

In the case of `CCCCN(CCCC)CCCNCc1ccc(Cl)c(Cl)c1` [Compound 50, N,N-Dibutyl-N′-(3,4-dichlorobenzyl)propane-1,3-diamine], the IC50 with Microcystis aeruginosa (setting [6]) worked out at 540 nM.
